Experiments:
Albino male CD-1 mice [1] = assay: Allergic contact dermatitis model: oxazolone-induced ear swelling; type: in vivo, mouse; conditions: for % Inhibition of the Ear Swelling Response: 20 μL to left ear 1 hour after oxazolone challenge, ear biopsy weight at 24 hours
Description: Allergic contact dermatitis is an animal model of skin inflammation that mimics many aspects of human skin inflammation. See Young J M, De Young L M, Cutaneous Models of Inflammation for the Evaluation of Topical and Systemic Pharmacological Agents; In: Pharmacological Methods in the Control of Inflammation, Alan R. Liss, Inc, pp. 215-231 (1989). […] The inflammatory response is established by using oxazolone as the chemical sensitizer. A topical anti-inflammatory agent is assessed by measuring its ability to suppress the ear swelling reaction after applying a challenge dose of oxazolone to the ear followed by the test agent.
In this assay, the totarol (Mende-DEK Limited, Masterton, New Zealand) was evaluated against hydrocortisone, a steroid known to inhibit allergic contact dermatitis. Albino male CD-1 mice, 7-9 weeks old, were induced on the shaved abdomen with 50 μL of 3% oxazolone in acetone/corn oil (Day 0). On Day 5, a 20 μL volume of 2% oxazolone in acetone was applied to the dorsal left ear of the mouse. Test agents were applied to the left ear (20 μL) 1 hour after oxazolone challenge in a 70% ethanol/30% propylene glycol vehicle. The right ear was not treated. The mice were sacrificed by CO2 inhalation 24 hours after the oxazolone challenge, the left and right ears were removed and a 7-mm biopsy was taken from each ear and weighed. Anti-inflammatory effects of compounds are evident as an inhibition of the increase in ear weight.

Albino male CD-1 mice [2] = assay: Neurosensory (neurogenic) inflammation model: resiniferatoxin-induced ear edema; type: in vivo, mouse; conditions: for activity in the neurosensory inflammation model (in words): resiniferatoxin ear edema model, overall; for % Inhibition of the Ear Edema: 20 μl to left ear, biopsy weight at 30 minutes
Source text: Neurosensory inflammation, also referred to as neurogenic inflammation, is a type of inflammation triggered by sensory nerve activation in skin. Certain natural substances that act on vanilloid receptors cause the nerves (C-fibers) to release inflammatory neuropeptides such as substance P and calcitonin gene-related peptide. In mouse skin, an edema response rapidly occurs upon application of either the vanilloid receptor activators, capsaicin or resiniferatoxin. Compounds that inhibit the response to neurosensory stimulation could be useful as topical analgesics, itch inhibitors or soothing agents for irritated or damaged skin. See U.S. Pat. No. 6,090,811.
Albino male CD-1 mice, 7-9 weeks old, were used. Resiniferatoxin alone (0.05%) or a combination of 0.05% resiniferatoxin with test compound was made in acetone. A 20-μl volume of the solutions was applied to the left ears (10 mice per treatment group). The right ear was not treated. The mice were sacrificed by CO2 inhalation 30 minutes after applying the solutions. The left and right ears were removed and a 7-mm biopsy was removed from each ear and weighed. The difference in biopsy weights between the right and left ear was calculated. The percent inhibition was calculated by comparing treatments to resiniferatoxin alone. Anti-edema effects of compounds are evident as an inhibition of the increase in ear weight.

Row | Structure (SMILES) | topical anti-inflammatory activity (in words) (Albino male CD-1 mice [1]; oxazolone allergic contact dermatitis model, overall) | % Inhibition of the Ear Swelling Response (Albino male CD-1 mice [1]; topical dose 0.03% w/v) | % Inhibition of the Ear Swelling Response (Albino male CD-1 mice [1]; topical dose 0.3% w/v) | % Inhibition of the Ear Swelling Response (Albino male CD-1 mice [1]; topical dose 1% w/v) | activity compared with hydrocortisone (in words) (Albino male CD-1 mice [1]; totarol at its two highest doses vs highest dose of hydrocortisone) | activity in the neurosensory inflammation model (in words) (Albino male CD-1 mice [2]) | % Inhibition of the Ear Edema (Albino male CD-1 mice [2]; topical dose 1% w/v with 0.05% resiniferatoxin in acetone) | % Inhibition of the Ear Edema (Albino male CD-1 mice [2]; topical dose 0.5% w/v with 0.05% resiniferatoxin in acetone) | % Inhibition of the Ear Swelling Response (Albino male CD-1 mice [1]; topical dose 0.001% w/v) | % Inhibition of the Ear Swelling Response (Albino male CD-1 mice [1]; topical dose 0.01% w/v) | % Inhibition of the Ear Swelling Response (Albino male CD-1 mice [1]; topical dose 0.1% w/v)
1 | CC(C)c1c(O)ccc2c1CC[C@H]1C(C)(C)CCC[C@]21C [Totarol] | highly effective as a topical anti-inflammatory agent with dose-dependent inhibition of the inflammatory response | 44.6% | 80.0% | 82.3% | equivalent in activity to the highest dose of hydrocortisone | highly effective | 46.6% | – | – | – | –
2 | CCCCC/C=C\C/C=C\C/C=C\C/C=C\CCCC(=O)NCc1ccc(O)c(OC)c1 [Arvanil, reference compound] | – | – | – | – | – | also active | – | 26.8% | – | – | –
3 | C[C@]12CCC(=O)C=C1CC[C@@H]1[C@@H]2[C@@H](O)C[C@@]2(C)[C@H]1CC[C@]2(O)C(=O)CO [Hydrocortisone, reference compound] | – | – | – | – | – | – | – | – | 36.0% | 65.5% | 84.2%
